For this assay, the system named is PANC-1 (human pancreatic cancer-derived cell line). The assay is described as follows: MTS assay on Panc-1 (human pancreas carcinoma cell line). It counts as cell-based. The note with it: 144 h; for inhibition at 10 µM: read-out: Growth inhibition (%) 10 μM; for IC50: PANC-1, MTS method, cell survival 6 days after exposure, 4-parameter logistic fit. A digest of the protocol: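 PANC-1 cells in D-MEM + 10% FBS at 37 °C, 5% CO2 exposed to 2-fold serial DMSO dilutions of compound for 6 days. Survival read by MTS (492 minus 630 nm, blank-corrected) relative to DMSO control as 100%; mean of 3 runs, 4-parameter logistic fit.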
On the technique in general: Tetrazolium dyes change colour on reduction, which living cells bring about.

Consider `CC(C)C[C@H]1ON(C(=O)/C=C/c2cscn2)[C@H]2CN(C3CCN(C)CC3)C(=O)[C@H](CC(C)C)N2C1=O` [ID-54, (3R,6S,9aS)-3,6-diisobutyl-8-(1-methylpiperidin-4-yl)-1-((E)-3-(thiazol-4-yl)acryloyl)tetrahydropyrazino[2,1-c] [1,2,4]oxadiazine-4,7(3H,6H)-dione], for which, for the setting “PANC-1, MTS, 6 days”, the inhibition (commonly how much of the control response was suppressed) at 10 µM is 57%.
`CC(C)C[C@H]1ON(C(=O)/C=C/c2nc(C#N)cs2)[C@H]2CN(C3CCN(C)CC3)C(=O)[C@H](CC(C)C)N2C1=O` [ID-3, 2-((E)-3-((3R, 6S, 9aS)-3,6-diisobutyl-8-(1-methylpiperidin-4-yl)-4,7-dioxohexahydropyrazino[2,1-c] [1,2,4]oxadiazin-1(6H)-yl)-3-oxoprop-1-en-1-yl)thiazole-4-carbonitrile]: the half-inhibitory concentration (IC50) (as a rule, the concentration that gives 50% inhibition) was found to be 340 nM.
On to `CN1CCC(N2C[C@@H]3N(C(=O)/C=C/c4nc5ccccc5s4)c4ccc(F)cc4C(=O)N3[C@@H](CCCCN(C)C3CCN(C(=O)OC(C)(C)C)CC3)C2=O)CC1` [ID-59, tert-butyl 4-((4-((4S,11aS)-11-((E)-3-(benzo[d]thiazol-2-yl)acryloyl)-8-fluoro-2-(1-methylpiperidin-4-yl)-3,6-dioxo-1,3,4,6,11,11a-hexahydro-2H-pyrazino[2,1-b]quinazolin-4-yl)butyl) (methyl)amino)piperidine-1-carboxylate], for which half-maximal inhibition (IC50) required 550 nM. For the same molecule, the inhibition at 1 µM (PANC-1, MTS, 6 days, 1 μM, read-out: Growth inhibition (%) 1 μM) was 98.8%.
`CSCC[C@H]1C(=O)N(C2CCN(C)CC2)C[C@@H]2N(C(=O)/C=C/c3nc4ccccc4s3)O[C@H](CC(C)C)C(=O)N21` [ID-60, (3R,6S,9aS)-1-((E)-3-(benzo[d]thiazol-2-yl)acryloyl)-3-isobutyl-8-(1-methylpiperidin-4-yl)-6-(2-(methylthio)ethyl)tetrahydropyrazino[2,1-c][1,2,4]oxadiazine-4,7(3H,6H)-dione] yielded an IC50 of 270 nM. Further, the inhibition at 10 µM (PANC-1, MTS, 6 days) came out at 93.7%.
As for `CC(C)C[C@H]1ON(C(=O)/C=C/c2ncc(Cl)cn2)[C@H]2CN(C3CCN(C)CC3)C(=O)[C@H](CC(C)C)N2C1=O` [ID-55, (3R,6S,9aS)-1-((E)-3-(5-chloropyrimidin-2-yl)acryloyl)-3,6-diisobutyl-8-(1-methylpiperidin-4-yl)tetrahydropyrazino[2,1-c][1,2,4]oxadiazine-4,7(3H,6H)-dione], the IC50 was found to be 460 nM. Also, for the setting “PANC-1, MTS, 6 days”, the inhibition at 10 µM came to 99.8%.
With `CC(C)C[C@H]1ON(C(=O)/C=C/c2nc3ccccc3s2)[C@H]2CN(C3CCN(CCCC(=O)O)CC3)C(=O)[C@H](CC(C)(C)C)N2C1=O` [ID-76, 4-(4-((3R,6S,9aS)-1-((E)-3-(benzo[d]thiazol-2-yl)acryloyl)-3-isobutyl-6-neopentyl-4,7-dioxohexahydropyrazino[2,1-c][1,2,4]oxadiazin-8 (1H)-yl)piperidin-1-yl)butanoic acid], the IC50 is 1600 nM.
For the molecule `CC(C)C[C@H]1ON(C(=O)/C=C/c2ccccn2)[C@H]2CN(CCC(=O)Nc3nccs3)C(=O)[C@H](CC(C)C)N2C1=O` [ID-27, 3-((3R,6S,9aS)-3,6-diisobutyl-4,7-dioxo-1-((E)-3-(pyridin-2-yl)acryloyl)hexahydropyrazino[2,1-c][1,2,4]oxadiazin-8 (1H)-yl)—N-(thiazol-2-yl)propanamide], half-maximal inhibition (IC50) required 8600 nM. Besides, the inhibition at 30 µM (PANC-1, MTS, 6 days, 30 μM, read-out: Growth inhibition (%) 30 μM) was 99.3%.
`CC(C)C[C@H]1ON(C(=O)/C=C/c2nc3cc(O)ccc3s2)[C@H]2CN([C@@H]3CCN(CCCCO)C3)C(=O)[C@H](CC(C)(C)C)N2C1=O` [ID-12, (3R,6S,9aS)-1-((E)-3-(5-hydroxybenzo[d]thiazol-2-yl)acryloyl)-8-((R)-1-(4-hydroxybutyl)pyrrolidin-3-yl)-3-isobutyl-6-neopentyltetrahydropyrazino[2,1-c][1,2,4]oxadiazine-4,7(3H,6H)-dione] gave an IC50 of 60 nM.

The values are drawn from patent publication US20230265104A1, “NOVEL HETEROCYCLIC COMPOUNDS” (PRISM BIOLAB CO., LTD., priority 2020, published 2023).
